Test results as given in patent US10189782B2, “Derivatives of indole for the treatment of cancer, viral infections and lung diseases” (BIOKINESIS, priority 2012, dated 2019).
Where a name gives a salt, the structure may show the parent alone. Read-outs that look alike come from different tables or passages of the source. Blank lines part the entries; values can stand above or below the molecule they belong to.

Assays:
[1] = system: human colon carcinoma HCT-116 xenografts; assay: Anti-tumor activity in nude mice bearing subcutaneous human colon carcinoma HCT-116 xenografts; type: in vivo; settings: i.p.
Method: The effects of one compound of the invention were studied on the tumor growth of human cancer cells in nude mice. […] The induction in nude mice was realized by subcutaneous injection in the right flank of each mouse of 10×10^6 HCT-116 cells in 200 μl serum-free medium. When the tumor volume reached 130 mm^3, mice were randomized in to 3 groups (10 mice/group).
Mice of group 2 were treated by intraperitoneal injection of cisplatin (diluted in NaCl 0.9%) at 4 mg/kg according to the treatment schedule 1Q3Dx3.
The body weight and tumor volume of mice were recorded twice a week until the end of the experiment.

[2] = target: T1, Human recombinant MKlp2 motor domain1-519, His tagged (Homo sapiens, UniProt O95235); assay: Microtubule stimulated ATPase activity of the MKlp2 motor domain (Kinesin ELIPA Assay Kit); type: biochemical; settings: read-out: MKIp2 IC50
T1 construct: Human recombinant MKlp2 motor domain1-519, His tagged; His; purchased Cytoskeleton MP05
T1 sequence (O95235 1-519): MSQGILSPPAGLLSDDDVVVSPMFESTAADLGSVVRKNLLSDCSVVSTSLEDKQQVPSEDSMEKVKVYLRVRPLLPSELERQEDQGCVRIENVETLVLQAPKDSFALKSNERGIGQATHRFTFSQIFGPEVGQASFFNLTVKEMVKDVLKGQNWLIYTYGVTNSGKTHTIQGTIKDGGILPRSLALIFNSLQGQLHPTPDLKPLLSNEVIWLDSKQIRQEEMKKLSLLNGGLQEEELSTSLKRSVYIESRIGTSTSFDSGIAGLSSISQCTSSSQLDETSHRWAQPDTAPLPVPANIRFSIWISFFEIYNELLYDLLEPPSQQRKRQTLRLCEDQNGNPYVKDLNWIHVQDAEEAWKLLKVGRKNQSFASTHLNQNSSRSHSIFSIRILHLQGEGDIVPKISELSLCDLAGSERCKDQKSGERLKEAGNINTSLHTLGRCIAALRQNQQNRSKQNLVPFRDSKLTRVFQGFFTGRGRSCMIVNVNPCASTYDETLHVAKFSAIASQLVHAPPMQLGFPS
How it was run: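 Microtubule-stimulated ATPase at 22° C, with free phosphate followed in real time by MESG/PNP coupled absorbance at 360 nm. Motor mix in Pipes-NaOH pH 7.0, MgCl2, 30 μM Tx with porcine brain microtubules; reaction started with 5 mM ATP stock at 20% of volume. Kinetic read: 21 readings, 30 s apart.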

K562 cells = assay: Cytotoxicity on human cancer cells (WST-1), K562; type: cell-based; settings: WST-1 on D4, read-out: K562 IC50
Method: (§1) Evaluation of Cytotoxicity Effects on Human Cancer Cells
(§2) The effects of the compounds of the invention on the viability of human cancer cells were studied on various human cancer cell lines of differing tissue origins (A549, NCI-H460: lung cancer; MDA-MB-231: breast cancer; HCT-116, HT-29: colon cancer; MIA-PaCa-2: pancreatic cancer; K562: leukaemia). All cell lines were obtained from ATCC or ECACC. Cells were cultured in the culture media described below, under a 37° C., 5% CO2 humidified atmosphere, according to a standard operating procedure.
(§3) On D0, the cells were plated in 90 μl in 96 wells plates at densities ranging from 500 to 5,000 cells per well.
(§4) Following addition of the test substance the cells were protected from light. The solvents (DMSO and specific control solvent were added at the maximal concentration: 10 μl/well (3 wells/condition)).
(§5) On D4, the Cell Proliferation Reagent WST-1 was added to each well (10 μl/well), according to a standard operating procedure. The cells were then incubated for 30 min to 4 h at 37° C.-5% CO2. After these incubations, the 96-well plates were shaken thoroughly for 1 min with Multiskan® EX apparatus (Thermo Labsystems, France). The absorbence was measured at 450 nm, the reference wavelength being 620 nm. The analysis of the results was performed with the Ascent software 2.6 (Thermo Labsystems, France), Microsoft Excel 2003 and GraphPad Prism 4.03 softwares to give the concentration of the compounds that induces the death of 50% of the cells (IC50).

HCT-116 = assay: Cytotoxicity on human cancer cells (WST-1), HCT-116; type: cell-based; settings: HCT-116 colon cancer cells, WST-1 on D4
Method: as §1, §2
HCT-116: Mc Coy's 5a+10% FBS+0.5 mM Ultraglutamine
as §3, §4
(§6) On D4, the Cell Proliferation Reagent WST-1 was added to each well (10 μl/well), according to a standard operating procedure. The cells were then incubated for 30 min to 4 h at 37° C.-5% CO2. After these incubations, the 96-well plates were shaken thoroughly for 1 min with Multiskan® EX apparatus (Thermo Labsystems, France). The absorbence was measured at 450 nm, the reference wavelength being 620 nm. […]

MDA-MB-231 = assay: Cytotoxicity on human cancer cells (WST-1), MDA-MB-231; type: cell-based; settings: MDA-MB-231 breast cancer cells, WST-1 on D4
Method: as §1, §2, §3, §4, §5

MIA-PaCa-2 = assay: Cytotoxicity on human cancer cells (WST-1), MIA-PaCa-2; type: cell-based; settings: MIA-PaCa-2 pancreatic cancer cells, WST-1 on D4
Method: as §1, §2, §3, §4, §5

NCI-H460 = assay: Cytotoxicity on human cancer cells (WST-1), NCI-H460; type: cell-based; settings: NCI-H460 lung cancer cells, WST-1 on D4, read-out: IC50 (μM) NCIH460
Method: as §1, §2
NCI-H460: RPMI 1640+10% FBS+10 mM HEPES+1 mM Sodium pyruvate+2.5 g/l glucose
as §3, §4, §6

[3] = Stability studies in mouse plasma; type: in vitro ADME; settings: for Remaining compound 63 (%) (mean ± SEM, n = 2): Mouse plasma, 2 μM, 37° C.
Method: (§7) Stability Studies in Mouse or Human Plasma The study was to evaluate the stability of the disclosed compounds after incubation in mouse or human plasma and to measure the metabolites formed. For the disclosed compound, a stock solution was prepared at 200 μM in DMSO. This solution was then 100-fold diluted in 1 ml of mouse or human plasma in order to obtain the required concentration of 2 μM. One aliquot of 100 μl was taken (TO) and the remaining solution was incubated at 37° C. in water bath for 60 min, 120 min and 240 min. At the end of each incubation time 100 μl of plasma was taken, 100 μl of acetonitrile containing 0.1% of formic acid were added to each aliquot in order to stop the enzymatic reaction and to precipitate the proteins. Samples was vortexed/mixed and centrifuged 5 min at 16434.6 g (=14000 rpm) (4° C.). After centrifugation, the clear supernatant (at least 150 μl) was transferred into 1.2 ml HPLC glass vials and sealed. Samples were placed into the refrigerated autosampler and 20 μl were injected into a HPLC-MS/MS. The results are expressed with the percentage of test substance remaining by comparing area under specific chromatographic peak of test samples after incubation with area under specific chromatographic peak at TO (Tables 7 and 8 and FIGS. 1 and 2).

[4] = Stability studies in human plasma; type: in vitro ADME; settings: for Remaining compound 63 (%) (mean ± SEM, n = 2): Human plasma, 2 μM, 37° C.
Method: as §7

[5] = HCT-116 xenograft nude mice, Cisplatin 4 mg/kg, Cpd 38 37.5 mg/kg, starting MBW 21 g
[6] = Table 6 (prodrugs, formula II), K562 cells

Compound: N.N.[Cl][Pt][Cl] [Cisplatin, cisplatin, reference compound]
Antitumor activity (tumor volume, FIG. 3) ([1]; HCT-116 xenograft bearing nude mice, cisplatin 4 mg/kg, compound 38 37.5 mg/kg): Antitumor activity was observed | MBWC D 0-D 4 (mean body weight change) [1, 5]: -1.1 g | MBWC D 0-D 7 (mean body weight change) [1, 5]: -2.54 g | MBWC D 0-D 10 (mean body weight change) [1, 5]: -3.33 g | MBWC D 0-D 14 (mean body weight change) [1, 5]: -2.22 g | MBWC D 0-D 17 (mean body weight change) [1, 5]: -1.26 g | MBWC D 0-D 21 (mean body weight change) [1, 5]: -0.38 g | MBWC D 0-D 24 (mean body weight change) [1, 5]: -0.02 g | MBWC D 0-D 28 (mean body weight change) [1, 5]: -0.1 g

IC50 ([2]; Table 3, 22° C.): 50 nM
Compound: COc1ccncc1/C=C(\C#N)c1c[nH]c2ccc(Br)cc12 [Example 5, (Z)-2-(5-bromo-1H-indol-3-yl)-3-(4-methoxypyridin-3-yl)acrylonitrile]
IC50 (K562 cells; Table 4, K562 leukaemia cells): 800 nM | IC50 (HCT-116): 0.7 µM | IC50 (MDA-MB-231): 1.7 µM | IC50 (MIA-PaCa-2): 0.7 µM | IC50 (NCI-H460): 0.9 µM

IC50 ([2]; Table 6 (prodrugs, formula II)): 10600 nM | Remaining compound 63 (%) (mean ± SEM, n = 2) ([3]; incubation time 0 min): 100.0 ± 0.0% | Remaining compound 63 (%) (mean ± SEM, n = 2) ([3]; incubation time 60 min): 9.0 ± 0.8% | Remaining compound 63 (%) (mean ± SEM, n = 2) ([3]; incubation time 120 min): 10.7 ± 8.7% | Remaining compound 63 (%) (mean ± SEM, n = 2) ([3]; incubation time 240 min): 4.9 ± 0.5% | half-life at 2 μM ([3]; mouse, plasma): ~33 min | Remaining compound 63 (%) (mean ± SEM, n = 2) ([4]; incubation time 0 min): 100.0 ± 0.0% | Remaining compound 63 (%) (mean ± SEM, n = 2) ([4]; incubation time 60 min): 49.2 ± 5.1% | Remaining compound 63 (%) (mean ± SEM, n = 2) ([4]; incubation time 120 min): 27.2 ± 5.4% | Remaining compound 63 (%) (mean ± SEM, n = 2) ([4]; incubation time 240 min): 21.2 ± 11.2% | half-life at 2 μM ([4]; human, plasma): ~60 min
Compound: COc1ccc(C#N)cc1/C=C(\C#N)c1cn(C(=O)CN(C)C)c2ccc(Br)cc12 [Example 63]
IC50 (K562 cells; [6]): 40 nM

IC50 ([2]; Table 6 (prodrugs, formula II)): > 50000 nM
Compound: COc1ccc(C#N)cc1/C=C(\C#N)c1cn(C(=O)CN2CCNCC2)c2ccc(Br)cc12 [Example 72, (Z)-3-(2-(5-bromo-1-(2-(piperazin-1-yl)acetyl)-1H-indol-3-yl)-2-cyanovinyl)-4-methoxybenzonitrile Hydrochloride]
IC50 (K562 cells; [6]): 10 nM

IC50 ([2]; Table 6 (prodrugs, formula II)): > 50000 nM
Compound: COCCOCCOCC(=O)n1cc(/C(C#N)=C/c2cc(C#N)ccc2OC)c2cc(Br)ccc21 [Example 73, (Z)-3-(2-(5-bromo-1-(2-(2-(2-methoxyethoxy)ethoxy)acetyl)-1H-indol-3-yl)-2-cyanovinyl)-4-methoxybenzonitrile]
IC50 (K562 cells; [6]): 30 nM

IC50 ([2]; Table 6 (prodrugs, formula II)): 2100 nM
Compound: COc1ccc(C#N)cc1/C=C(\C#N)c1cn(C(=O)[C@@H](N)CO)c2ccc(Br)cc12 [Example 74, (S,Z)-3-(2-(1-(2-amino-3-hydroxypropanoyl)-5-bromo-1H-indol-3-yl)-2-cyanovinyl)-4-methoxybenzonitrile hydrochloride]
IC50 (K562 cells; [6]): 10 nM

IC50 ([2]; Table 6 (prodrugs, formula II)): 4600 nM
Compound: COc1ccc(C#N)cc1/C=C(\C#N)c1cn(C(=O)C2CCC(=O)N2)c2ccc(Br)cc12 (stereo not drawn) [Example 75, (Z)-3-(2-(5-bromo-1-(5-oxopyrrolidine-2-carbonyl)-1H-indol-3-yl)-2-cyanovinyl)-4-methoxybenzonitrile]
IC50 (K562 cells; [6]): 20 nM

IC50 ([2]; Table 6 (prodrugs, formula II)): 1300 nM
Compound: COc1ccc(C#N)cc1/C=C(\C#N)c1cn(C(=O)[C@H](N)CCCCN)c2ccc(Br)cc12 [Example 76, (R,Z)-3-(2-(5-bromo-1-(2,6-diaminohexanoyl)-1H-indol-3-yl)-2-cyanovinyl)-4-methoxybenzonitrile dihydrochloride]
IC50 (K562 cells; [6]): 40 nM

IC50 ([2]; Table 6 (prodrugs, formula II)): > 50000 nM
Compound: COc1ccc(C#N)cc1/C=C(\C#N)c1cn(C(=O)CCOP(=O)(O)O)c2ccc(Br)cc12 [Example 79, (Z)-3-(5-bromo-3-(1-cyano-2-(5-cyano-2-methoxyphenyl)vinyl)-1H-indol-1-yl)-3-oxopropyl dihydrogen phosphate]
IC50 (K562 cells; [6]): 400 nM
